EC50, CC50 and IC50 data for 10 molecules are collected here from patent US20250115577A1, “BCL-2 Inhibitors” (Eil Therapeutics, Inc., priority 2021, published 2025).

The test system of data set [1] is caspase-3 and -7 activities in RS4-11 cells. Briefly: Caspase-3/7 activation (Caspase-Glo 3/7) in RS4-11 cells. Format: cell-based. The conditions noted are these: Homo sapiens, 3.5 h, read-out: Cas-3/7 EC50. The protocol: Example E. Caspase-3/7 Activation
Assay Principle: The Caspase-Glo 3/7 Assay is homogeneous, luminescent assay that measures caspase-3 and -7 activities. The assay provides a luminogenic caspase-3/7 substrate, which contains the tetrapeptide sequence DEVD, in a reagent optimized for caspase activity.
Assay Procedure: Incubate RS4-11 (ATCC, CRL-1873) cells in the 384-well white plate (Corning, #3570) with varying concentrations of test compounds for 3.5 h in a humidified incubator at 37° C. and 5% CO2 […]. Add 15 μL of the Caspase-Glo (Promega, #8212) reagent to each well and to incubate the plate for 30 min at rt. Read on the CLARIOstar Plus (BMG LABTECH) instrument.
(§1) Instrumentation: CLARIOstar Plus (BMG LABTECH); Biomek FX for liquid handling (Beckman Coulter).

The nature of data set [2]: Cell viability assay (CellTiter-Glo), HEK293. Format: cell-based. The conditions noted are these: human, HEK293 cells, 3 days of incubation. The procedure:
(§2) Example D. Cell Viability Assays (Cell lines HEK293, RS4-11, MOLT-4)
(§3) Cells were seeded at a density of 4000 cells per well in the 384-well clear bottom plate (Greiner Cat #781090) to the 45 μL total volume of either DMEM (PanEco, Cat #C420, for HEK293) or RPMI (PanEco, Cat #C330, for other cell lines) with 10% FBS(HyClone Cat #SV30160.03). Prior to adding compounds, the HEK293 cells were allowed to adhere overnight at 37° C. and 5% CO2. The 500× compounds solutions in DMSO(Sigma Cat #D2650) were dispersed into a 384-well compound plate (Diamond Well Plate, Axigen, Cat #P-384-120 SQ-C—S) including only DMSO control. The 1 μL aliquots of the 500× compounds from the compound plate were added to 49 μL of culture medium in the Dilution plate (Diamond Well Plate, Axigen, Cat #P-384-120 SQ-C—S), mixed and then the 5 μL aliquts of the 10× compound solutions were transferred to cells followed by centrifugation at 100 g for 1 min. Final DMSO concentration was 0.2%. After 3 days of incubation the 10 μL aliquots of CellTiter-Glo (Promega, CAT #G7572) were added to the cells, plate was centrifuged at 100 g for 1 min and the luminescence was measured on the CLARIOstar Plus (BMG LABTECH) instrument.
as §1

The next data set has as its target BCL-2 (Homo sapiens (Human), UniProt P10415). Description: BCL-2 TR-FRET Assay (primary PPI inhibition). Format: binding. The conditions noted are these: 60 min incubation, read-out: BCL2 IC50. The method in brief:
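His-tagged BCL-2 (3 ng) with anti-His Tb donor, dye-labeled acceptor and BCL-2 peptide ligand; compound added at 200× stock, final DMSO 0.5%. 60 min incubation, then TR-FRET read at 340 nm excitation, 620/665 nm emission, 60 µs delay, 500 µs integration.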
Background: TR-FRET usually uses a lanthanide donor and a delayed reading to cut background.

A further data set relates to MOLT-4 cells. Description: Cell viability assay (CellTiter-Glo), MOLT-4. Format: cell-based. The conditions noted are these: Homo sapiens, 72 h, 3 days of incubation. The protocol: as §2, §3, §1
(In general: ATP-based viability assays read luminescence as a measure of living cells.)

Another data set relates to RS4-11 cells. Description: Cell viability assay (CellTiter-Glo), RS4-11. Format: cell-based. The conditions noted are these: Homo sapiens, RS4-11, 72 h, 3 days of incubation. The protocol:
as §2, §3, §1

In another data set the target is BCL-2 [G101V] (Homo sapiens (Human), UniProt P10415, G101V). Briefly: BCL-2 [G101V] TR-FRET Assay (primary PPI inhibition). Format: binding. The conditions noted are these: 60 min incubation, read-out: BCL2[G101V] IC50. The procedure: Example C. BCL-2 [G101V]TR-FRET Assay
The following assay concentrations and times were used: 0.22 ng/μl of BCL-2 (SinoBiological, #10195-H08E1), 5 μL of 1:100 anti-His Tb-labeled donor, 5 μL of 1:100 Dye-labeled acceptor, 5 μL of 1:40 BCL-2 Peptide Ligand (BPS Bioscience, #50223), and 2 μL of 200× test compound, with 60 min incubation time (final concentration of DMSO 0.5%). The results of the assay were read using a plate reader with the following parameters: TR FRET, 340ex/620 and 665em; 60 usec Delay; and 500 usec integration.
as §1

The target of a further data set is BCL-xL (Homo sapiens (Human), UniProt Q07817). Description: BCL-xL TR-FRET Assay (primary PPI inhibition). The conditions noted are these: 60 min incubation, read-out: BCLxL IC50. Format: binding. The procedure, abridged:
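TR-FRET competition of His-tagged BCL-xL (10.5 ng) binding to dye-labeled peptide ligand, with anti-His Tb donor; compound added from 200× stock, 0.5% DMSO final. After 60 min incubation, read at 340 nm excitation, 620/665 nm emission, 60 µs delay, 500 µs integration.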

BCL-xL, sequence (Q07817 whole entry): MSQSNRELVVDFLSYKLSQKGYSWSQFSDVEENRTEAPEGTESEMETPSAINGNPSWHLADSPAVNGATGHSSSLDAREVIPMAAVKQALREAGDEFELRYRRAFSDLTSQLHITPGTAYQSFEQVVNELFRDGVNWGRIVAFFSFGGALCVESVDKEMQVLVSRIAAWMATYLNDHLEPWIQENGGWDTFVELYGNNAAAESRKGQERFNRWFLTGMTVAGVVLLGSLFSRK

The CC50 is the concentration at which the toxic effect on the cells reaches its halfway point. What is called IC50 is the midpoint of a concentration-inhibition curve. With `Cc1c(C(=O)N(Cc2ccccc2C#N)c2ccc3[nH]ncc3c2)cc(-c2cc(Cl)ccc2C(=O)N2Cc3ccccc3C[C@H]2CN2CCOCC2)n1C` [Compound 68, 5-[5-chloro-2-[(3S)-3-(morpholinomethyl)-3,4-dihydro-1H-isoquinoline-2-carbonyl]phenyl]-N-[(2-cyanophenyl)methyl]-N-(1H-indazol-5-yl)-1,2-dimethyl-pyrrole-3-carboxamide], the EC50 in data set [1] is over 500 nM. In data set [2], this molecule showed a CC50 at 3 days of over 25 µM. The IC50 at BCL-2 is 10 to 50 nM; on BCL-2 [G101V], over 1000 nM; on BCL-xL, over 5 µM. For the same molecule, the half-maximal cytotoxic concentration (CC50) was over 10 µM with MOLT-4 cells and over 200 nM with RS4-11 cells.
Turning to `COc1cccc(CN(C(=O)c2cc(-c3cc(C(F)F)c(Cl)cc3C(=O)N3Cc4ccccc4C[C@H]3CN3CCOCC3)n(C)c2C)c2ccc(O)cc2)c1C` [Compound 43, 5-[4-chloro-5-(difluoromethyl)-2-[(3S)-3-(morpholinomethyl)-3,4-dihydro-1H-isoquinoline-2-carbonyl]phenyl]-N-(4-hydroxyphenyl)-N-[(3-methoxy-2-methyl-phenyl)methyl]-1,2-dimethyl-pyrrole-3-carboxamide], the EC50 in data set [1] is over 500 nM. Further, the half-maximal cytotoxic concentration (CC50) at 3 days in data set [2] is over 25 µM. The 50% inhibitory concentration (IC50) on BCL-2 is at most 5 nM; at BCL-2 [G101V], 100 to 1000 nM; at BCL-xL it was 2 to 5 µM. Moreover, the CC50 is at most 5 µM with MOLT-4 cells and over 200 nM with RS4-11 cells.
Consider `COc1cc(C(=O)N2Cc3ccccc3C[C@H]2CN2CCOCC2)c(-c2cc(C(=O)N(Cc3cccc(OC)c3C)c3ccc(O)cc3)c(C)n2C)cc1Cl` [Compound 11, 5-[5-chloro-4-methoxy-2-[(3S)-3-(morpholinomethyl)-3,4-dihydro-1H-isoquinoline-2-carbonyl]phenyl]-N-(4-hydroxyphenyl)-N-[(3-methoxy-2-methyl-phenyl)methyl]-1,2-dimethyl-pyrrole-3-carboxamide], for which the EC50 in data set [1] is at most 200 nM. In addition, the CC50 at 3 days in data set [2] was over 25 µM. Also, the IC50 on BCL-2 is 10 to 50 nM; on BCL-2 [G101V], 100 to 1000 nM; at BCL-xL it was 2 to 5 µM. Moreover, the CC50 was at most 5 µM in the data set on MOLT-4 cells and 100 to 200 nM in the data set on RS4-11 cells.
For `COc1cccc(CN(C(=O)c2cc(-c3cc([N+](=O)[O-])ccc3C(=O)N3Cc4ccccc4C[C@H]3CN3CCOCC3)n(C)c2C)c2ccc3[nH]ncc3c2)c1C` [Compound 65, N-(1H-indazol-5-yl)-N-[(3-methoxy-2-methyl-phenyl)methyl]-1,2-dimethyl-5-[2-[(3S)-3-(morpholinomethyl)-3,4-dihydro-1H-isoquinoline-2-carbonyl]-5-nitro-phenyl]pyrrole-3-carboxamide], in data set [1], the EC50 was over 500 nM. Also, the CC50 at 3 days in data set [2] is 10 to 25 µM. The half-maximal inhibitory concentration (IC50) on BCL-2 is 10 to 50 nM; at BCL-2 [G101V], over 1000 nM; on BCL-xL, over 5 µM. Further, the CC50 was at most 5 µM in the data set with MOLT-4 cells and over 200 nM with RS4-11 cells.
As for `N#Cc1ccccc1CN(C(=O)c1cc(-c2cc(Cl)ccc2C(=O)N2Cc3ccccc3C[C@H]2CN2CCOCC2)n2c1CCCC2)c1ccc(O)cc1` [Compound 3, 3-[5-chloro-2-[(3S)-3-(morpholinomethyl)-3,4-dihydro-1H-isoquinoline-2-carbonyl]phenyl]-N-[(2-cyanophenyl)methyl]-N-(4-hydroxyphenyl)-5,6,7,8-tetrahydroindolizine-1-carboxamide], in data set [1], the EC50 was 200 to 500 nM. In data set [2], the CC50 at 3 days lay in the range of 10 to 25 µM. For the same molecule, the half-maximal inhibitory concentration (IC50) at BCL-2 is at most 5 nM; on BCL-2 [G101V] it was at most 100 nM; at BCL-xL, over 5 µM. The results for the CC50 in the data set on MOLT-4 cells and in the data set with RS4-11 cells were at most 5 µM and 100 to 200 nM, respectively.
Consider `COc1cccc(CN(C(=O)c2cc(-c3cc(F)c(F)cc3C(=O)N3Cc4ccccc4C[C@H]3CN3CCOCC3)n(C)c2C)c2ccc(O)cc2)c1C` [Compound 51, 5-[4,5-difluoro-2-[(3S)-3-(morpholinomethyl)-3,4-dihydro-1H-isoquinoline-2-carbonyl]phenyl]-N-(4-hydroxyphenyl)-N-[(3-methoxy-2-methyl-phenyl)methyl]-1,2-dimethyl-pyrrole-3-carboxamide], for which the EC50 in data set [1] is 200 to 500 nM. Also, the CC50 at 3 days in data set [2] was over 25 µM. Besides, the 50% inhibitory concentration (IC50) lay within 10 to 50 nM on BCL-2, 100 to 1000 nM at BCL-2 [G101V] and 2 to 5 µM on BCL-xL. In addition, the CC50 was at most 5 µM with MOLT-4 cells and 100 to 200 nM in the data set with RS4-11 cells.
Consider `COc1cc(C(=O)N2Cc3ccccc3C[C@H]2CN2CCOCC2)c(-c2cc(C(=O)N(Cc3cccc(OC)c3C)c3ccc(O)cc3)c(C)n2C)cc1F` [Compound 21, 5-[5-fluoro-4-methoxy-2-[(3S)-3-(morpholinomethyl)-3,4-dihydro-1H-isoquinoline-2-carbonyl]phenyl]-N-(4-hydroxyphenyl)-N-[(3-methoxy-2-methyl-phenyl)methyl]-1,2-dimethyl-pyrrole-3-carboxamide], for which the EC50 in data set [1] is at most 200 nM. Besides, in data set [2], the cytotoxic concentration (CC50) at 3 days is over 25 µM. Further, the 50% inhibitory concentration (IC50) at BCL-2 lay in the range of 10 to 50 nM; at BCL-2 [G101V] it was 100 to 1000 nM; on BCL-xL it was 2 to 5 µM. Besides, the CC50 with MOLT-4 cells is at most 5 µM; in the data set on RS4-11 cells, 100 to 200 nM.
As to `COc1cccc(CN(C(=O)c2cc(-c3cc(F)c(OC(F)F)cc3C(=O)N3Cc4ccccc4C[C@H]3CN3CCOCC3)n(C)c2C)c2ccc(O)cc2)c1C` [Compound 16, 5-[4-(difluoromethoxy)-5-fluoro-2-[(3S)-3-(morpholinomethyl)-3,4-dihydro-1H-isoquinoline-2-carbonyl]phenyl]-N-(4-hydroxyphenyl)-N-[(3-methoxy-2-methyl-phenyl)methyl]-1,2-dimethyl-pyrrole-3-carboxamide], the EC50 in data set [1] was in the range of 200 to 500 nM. In data set [2], this molecule yielded a CC50 at 3 days of over 25 µM. The IC50 was 5 to 10 nM at BCL-2, over 1000 nM on BCL-2 [G101V] and 2 to 5 µM on BCL-xL. The 50% cytotoxic concentration (CC50) in the data set on MOLT-4 cells is at most 5 µM; in the data set on RS4-11 cells, over 200 nM.
Consider `Cc1c(C(=O)N(Cc2ccccc2C#N)c2ccc(O)cc2)cc(-c2cc(Cl)ccc2C(=O)N2Cc3ccccc3C[C@H]2CN2CCOCC2)n1C` [Compound 6, 5-[5-chloro-2-[(3S)-3-(morpholinomethyl)-3,4-dihydro-1H-isoquinoline-2-carbonyl]phenyl]-N-[(2-cyanophenyl)methyl]-N-(4-hydroxyphenyl)-1,2-dimethyl-pyrrole-3-carboxamide], for which the EC50 in data set [1] is 200 to 500 nM. The molecule further had a CC50 at 3 days in data set [2] of 10 to 25 µM. Moreover, the IC50 is at most 5 nM at BCL-2, at most 100 nM at BCL-2 [G101V] and at most 2 µM on BCL-xL. Besides, the figures for the CC50 with MOLT-4 cells and in the data set with RS4-11 cells were 5 to 10 µM and 100 to 200 nM, respectively.
For the molecule `COc1ccccc1CN(C(=O)c1cc(-c2cc(F)ccc2C(=O)N2Cc3ccccc3C[C@H]2CN2CCOCC2)n(C)c1C)c1ccc(O)cc1` [Compound 54, 5-[5-fluoro-2-[(3S)-3-(morpholinomethyl)-3,4-dihydro-1H-isoquinoline-2-carbonyl]phenyl]-N-(4-hydroxyphenyl)-N-[(2-methoxyphenyl)methyl]-1,2-dimethyl-pyrrole-3-carboxamide], the EC50 in data set [1] was over 500 nM. The molecule also showed a CC50 at 3 days in data set [2] of over 25 µM. Also, the IC50 is 5 to 10 nM on BCL-2, at most 100 nM on BCL-2 [G101V] and at most 2 µM on BCL-xL. Further, the values for the CC50 in the data set on MOLT-4 cells and in the data set with RS4-11 cells were at most 5 µM and 100 to 200 nM, respectively.
